Data as given in patent US20040220224A1, “Method of treating irritable bowel syndrome” (Pfizer Inc, priority 2003, published 2004).

Tested on: female BALB/c or CD-1 mice
Experiment: Intestinal motility model in mice (gastrointestinal transit of red dye)
Assay type: in vivo
Conditions: mice fasted 24 h, red dye 1 h after treatment, measured 20 min later
Experimental: Intestinal Motility Model:
An intestinal motility model in mice may be used to evaluate of antimuscarinic compounds of formulae I-V as potential treatment for irritable bowel syndrome. In the studies, female BALB/c or CD-1 mice are fasted for 24 hours and then treated orally with one or more compounds of formulae I-V or vehicle. One hour after of treatment, the mice receive a red dye mixture via gastric gavage. Twenty minutes later, the animals are euthanized and the small intestine is removed. Gastrointestinal transit (GIT) is calculated using the measured length of the small intestine from the pyloric sphincter to the ileocecal junction and the distance traveled by the red dye front. Percent inhibition is indicated above bars.

C[N+]1(CCc2ccc3c(c2)CCO3)CC[C@@H](C(C(N)=O)(c2ccccc2)c2ccccc2)C1.[I-] (stereo partly drawn) [Example 27, (3S)-3-(2-amino-2-oxo-1,1-diphenylethyl)-1-[2-(2,3-dihydro-1-benzofuran-5-yl)ethyl]-1-methylpyrrolidinium iodide]
inhibition of gastrointestinal transit (GIT) (oral dose 10 mg/kg): 13% | inhibition of gastrointestinal transit (GIT) (oral dose 30 mg/kg): 20% | inhibition of gastrointestinal transit (GIT) (oral dose 60 mg/kg): 30%

Cc1ccc(O)c([C@H](CC[N+](C)(C(C)C)C(C)C)c2ccccc2)c1 [Example 3, (3R)-3-(2-Hydroxy-5-methylphenyl)-N,N-diisopropyl-N-methyl-3-phenylpropan-1-aminium bromide]
inhibition of gastrointestinal transit (GIT) (oral dose 10 mg/kg): 17% | inhibition of gastrointestinal transit (GIT) (oral dose 30 mg/kg): 29% | inhibition of gastrointestinal transit (GIT) (oral dose 60 mg/kg): 28%

NC(=O)C(c1ccccc1)(c1ccccc1)[C@@H]1CCN(CCc2ccc3c(c2)CCO3)C1 [reference compound]
inhibition of gastrointestinal transit (GIT) (oral dose 30 mg/kg): about 15% | inhibition of gastrointestinal transit (GIT) (oral dose 60 mg/kg): about 15%
